Reference: patent US11242331B2 (University of Florida Research Foundation, Incorporated, priority 2016, dated 2022)

Key:
[1] = system: NO production in RAW264.7 cells; assay: Nitric oxide assay (Griess reagent); format: cell-based, mouse; conditions: RAW264.7 macrophage cells, LPS, 24 h
Description: (§1) Each biological screen was performed in three independent experiments at concentrations of 1, 10, 100 or 200 μM. All hit compounds identified in primary screens were then evaluated in follow-up assays to validate/confirm the initial screening results.
(§2) Mouse macrophage, RAW264.7 cells were cultured in Dulbecco's Modified Eagle Medium (DMEM) supplemented with 10% fetal bovine serum and maintained in 5% C02 at 37° C. Cells were seeded in 96-well plates (20,000 cells/well) and after 24 h pretreated for 1 hour with different concentrations of test compounds in triplicate or solvent control (0.5% DMSO) before adding LPS (1 μg/mL in PBS). Nitric oxide (NO) production in culture supernatant was assessed after 24 h following treatment by measuring nitrite concentration, an oxidative product of NO. Nitrite production was measured by mixing […] of culture supernatant with […] of Griess reagent (Promega), absorbance measured at 540 nm and NO % calculated against a calibration curve generated for fresh sodium nitrite standard. Cells were used for measuring viability (24 h) as above.

[2] = system: Nrf2-ARE pathway (ARE-luciferase reporter); assay: ARE luciferase assay in LNCaP cells (activation); format: cell-based, human; conditions: 24 h, screened at 100, 10 and 1 μM
Description: as §1
(§3) As a control, LNCaP viability was monitored in parallel (FIG. 11E).
(§4) The antioxidant response element (ARE) expression induction assay with LNCaP cells was performed as previously described.^6 The ARE expression inhibition assay was performed with MDA-MB-231-ARE-Luc cells that stably express the ARE reporter construct.7 MDA-MB-231-ARE-Luc cells were seeded in 96 well plates at 1.5×10^4 cells/well in DMEM medium (GIBCO) containing 10% FCS and 1% antibiotic-antimycotic (GIBCO), and allowed to attach overnight. Test compounds were screened in triplicate at three concentrations (100, 10 and 1 μM) and ARE expression was quantified on the EnVision plate reader (Perkin-Elmer) using the BriteLite plus luciferase reporter assay system (Perkin-Elmer) after 24 h exposure in a humidified incubator at 37° C. with 5% CO2. In both cell line assays the luciferase expression for compound-treated wells was expressed relative the 0.5% DMSO carrier solvent control. A parallel viability assay was performed with the Cell Titer 96 Non-radioactive Cell Proliferation Assay (Promega) and the data expressed in the same manner as above. […]

[3] = system: Nrf2-ARE pathway (ARE-luciferase reporter); assay: ARE luciferase assay in MDA-MB-231-ARE-Luc cells (inhibition); format: cell-based, human; conditions: 24 h, screened at 100, 10 and 1 μM
Description: as §1
The library compounds were then assessed for the potential to modulate the activity of another key transcription factor, NF-E2-related factor 2 (Nrf2), which acts on the antioxidant response element (ARE) in the promoter region upstream of antioxidant and phase II detoxification enzymes. Activators of the Nrf2-ARE pathway have potential as cancer preventive agents because of their ability to increase antioxidant status of the cell and protect from oxidative damage that could lead to cancer. Inhibitors in turn may increase the susceptibility of cancer cells to chemotherapeutic agents and overcome drug resistance since Nrf2 is commonly activated in cancer.^44 To screen for Nrf2 inhibitors, MDA-MB-231 breast cancer cells (a model for invasive, triple negative breast cancer) stably transfected with the ARE-luciferase reporter were used, where the promoter region is derived from the human NQO1 gene.^45 As a control, cell viability was monitored to ensure the identification of false positives in the reporter gene assay that are a result of concomitant reduced cell viability. […]

endogenous NQO1 = assay: RT-qPCR validation of ARE activation in LNCaP cells; format: cell-based, human; conditions: for levels of endogenous NQO1 (ARE activation): 24 h, RT-qPCR, relative to 0.5% DMSO; for potency compared with positive control sulforaphane: NQO1 RT-qPCR, sulforaphane 10 μM
Description: as §3
The antioxidant response element (ARE) expression induction assay with LNCaP cells was performed as previously described.^6 The ARE expression inhibition assay was performed with MDA-MB-231-ARE-Luc cells that stably express the ARE reporter construct.7 MDA-MB-231-ARE-Luc cells were seeded in 96 well plates at 1.5×10^4 cells/well in DMEM medium (GIBCO) containing 10% FCS and 1% antibiotic-antimycotic (GIBCO), and allowed to attach overnight. Test compounds were screened in triplicate at three concentrations (100, 10 and 1 μM) and ARE expression was quantified on the EnVision plate reader (Perkin-Elmer) using the BriteLite plus luciferase reporter assay system (Perkin-Elmer) after 24 h exposure in a humidified incubator at 37° C. with 5% CO2. In both cell line assays the luciferase expression for compound-treated wells was expressed relative the 0.5% DMSO carrier solvent control. A parallel viability assay was performed with the Cell Titer 96 Non-radioactive Cell Proliferation Assay (Promega) and the data expressed in the same manner as above. Compounds that inhibited ARE expression 20% more than viability, or induced ARE expression more than three-fold were re-tested in a seven-point, two-fold serial dilution dose-response assay (100-1.56 μM).
In order to validate the ARE modulatory effects of compounds from the primary screen, the expression of the target Nrf2 target gene, Ngo1, was quantified by RT-qPCR. LNCaP and MDA-MB-231-ARE-Luc cells were seeded in 6 well plates at 5×10^5 and 7×10^5 cells per well, in EMEM and DMEM media containing 10% FCS and 1% antibiotic-antimycotic (GIBCO) respectively. Cells were allowed to attach overnight before the addition of test compounds. After 24 h exposure in a humidified incubator at 37° C. with 5% CO2, RNA was isolated using the RNeasy kit (Qiagen) and quantified using a NanoDrop spectrophotometer (Thermo Fisher Scientific). cDNA was synthesized from 2 μg of RNA using Oligo(dT)12-18 (Life Technologies) primer and SuperScript II (Thermo Fisher Scientific) on the Mastercycler Gradient PCR machine (Eppendorf) for 1 h at 42° C. following a 10 min denaturation at 65° C. Gene expression was quantified on the 7300 Real Time PCR machine (Applied Biosystems) using TaqMan Gene Expression Master Mix (Thermo Fisher Scientific) and probes for the target gene Nqo1 (Hs02512143_s1, Thermo Fisher Scientific) and reference gene ActB (Hs99999903_m1, Thermo Fisher Scientific). Real time PCR was performed with the following thermal cycle: 1. 50° C. for 2 min; 2. 95° C. for 10 min; 3. 40 cycles of 95° C. for 15 sec followed by 60° C. for 1 min.

[4] = system: endogenous Nrf2 target gene, NQO1; assay: RT-qPCR validation of ARE inhibition in MDA-MB-231-ARE-Luc cells; format: cell-based, human; conditions: 24 h, relative to 0.5% DMSO
Description: The library compounds were then assessed for the potential to modulate the activity of another key transcription factor, NF-E2-related factor 2 (Nrf2), which acts on the antioxidant response element (ARE) in the promoter region upstream of antioxidant and phase II detoxification enzymes. Activators of the Nrf2-ARE pathway have potential as cancer preventive agents because of their ability to increase antioxidant status of the cell and protect from oxidative damage that could lead to cancer. Inhibitors in turn may increase the susceptibility of cancer cells to chemotherapeutic agents and overcome drug resistance since Nrf2 is commonly activated in cancer.^44 To screen for Nrf2 inhibitors, MDA-MB-231 breast cancer cells (a model for invasive, triple negative breast cancer) stably transfected with the ARE-luciferase reporter were used, where the promoter region is derived from the human NQO1 gene.^45 As a control, cell viability was monitored to ensure the identification of false positives in the reporter gene assay that are a result of concomitant reduced cell viability.
as §4, with “CO2.” for “CO2. In both cell line assays the luciferase expression for compound-treated wells was expressed relative the 0.5% DMSO carrier solvent control. A parallel viability assay was performed with the Cell Titer 96 Non-radioactive Cell Proliferation Assay (Promega) and the data expressed in the same manner as above.”
In order to validate the ARE modulatory effects of compounds from the primary screen, the expression of the target Nrf2 target gene, Ngo1, was quantified by RT-qPCR. […]

Staphylococcus aureus = assay: Bacterial growth inhibition assay, S. aureus; format: cell-based; conditions: 16-18 h, OD600
Description: as §1
Bacterial growth inhibition was determined by screening all yohimbine-derived compounds at 200 μM in 96-well plates. Briefly, 2 μL of a 20 mM DMSO stock solution (test compound) was added to 98 μL of media (tryptic soy broth with 0.5% glucose for S. aureus; LB for A. baumannii) before each well was treated with an additional 100 μL of inoculated media (giving ˜10^5 colony forming units per milliliter) prepared from a fresh log-phase culture (OD600 of 0.8 to 1.0). The inoculated 96-well plates were then covered and placed in a humidifying chamber and allowed to incubate at 37° C. for 16-18 hours. Bacterial growth was then determined using a spectrophotometer plate reader (OD600) to quantify turbidity (growth) in each treated and untreated well of the 96-well plates. Turbidity for treated wells were compared to a 1% v/v DMSO vehicle and recorded in the screening heat map. All compounds were tested in three independent experiments.

[5] = system: parental HCT116 and HCT116 HIF-1α−/−HIF-2α−/− cells; assay: Cell viability assay in isogenic HCT116 lines (HIF-dependent anticancer activity); format: cell-based, human; conditions: parental HCT116 vs HCT116 HIF-1α/HIF-2α double knockout, 48 h, MTT
Description: The screen aimed to identify selective antiproliferative agents that preferentially act on cancer cells with functional hypoxia-inducible factors (HIF) pathways. […] Isogenic HCT116 colorectal cancer cell lines were employed, including parental HCT116 and HCT116 double knockout cells lacking HIF-1α and HIF-2α,^36,37 and the library was screened for differential antiproliferative activity.

RAW264.7 cells = assay: RAW264.7 cell viability (MTT); format: cell-based, mouse; conditions: 24 h
Description: Human colorectal cancer cell lines HCT116, HCT116^HIF-1α−/−HIF-2α−/−, and HCT 116^WT KRAS were cultured in Dulbecco's Modified Eagle Medium (DMEM) supplemented with 10% fetal bovine serum and maintained in 5% CO2 at 37° C. The cells were seeded in a 96-well plate (10,000 cells/well) and treated with different concentrations of test compounds or solvent control (0.5% DMSO) after 24 h. Cell viability was measured 48 h following treatment with MTT dye using the manufacturer's protocol (Promega).
as §2

For `COC(=O)[C@@H]1[C@H]2C[C@H]3c4[nH]c5ccccc5c4CCN3C[C@@H]2CC[C@@H]1O` [yohimbine 1, yohimbine], the “inhibition of nitric oxide (NO) production” value [1] was “does not possess any of these activities”, the “ARE activation (luciferase reporter)” value [2] was “does not possess any of these activities” and the “ARE inhibition (luciferase reporter)” value [3] was “does not possess any of these activities”.

For `OC[C@@H]1[C@H]2C[C@@H]3OCc4ccccc4-n4c3c(c3ccccc34)CCNC[C@@H]2CC[C@@H]1O` [Y5b], the “levels of endogenous NQO1 (ARE activation)” value (endogenous NQO1) was “active at lower concentrations” and the “potency compared with positive control sulforaphane” value (endogenous NQO1) was “only slightly less potent than the positive control”.

`CC(=O)N1CCc2c([nH]c3ccccc23)[C@H](OCc2ccccc2)C[C@H]2[C@@H](CC[C@H](O)[C@@H]2CO)C1` [Y6u] was tested, and the “levels of endogenous NQO1 (ARE activation)” value (endogenous NQO1) was “active at lower concentrations” and the “potency compared with positive control sulforaphane” value (endogenous NQO1) was “only slightly less potent than the positive control”.

`COC(=O)[C@@H]1[C@H]2C[C@H](OCc3ccc(Br)cc3)c3[nH]c4ccccc4c3CCN(C#N)C[C@@H]2CC[C@@H]1O` [Y6q] was tested, and the “transcription of endogenous NQO1” value [4] was “downregulated NQO1 transcription” and the inhibition at 200 µM (Staphylococcus aureus) was roughly 20%.

In the case of `COC(=O)[C@@H]1[C@H]2C[C@@H](c3[nH]c4ccccc4c3CCn3cc(-c4cccc(Cl)c4)nn3)N(C#N)C[C@@H]2CC[C@@H]1O` [Y1f], the “transcription of endogenous NQO1” value [4] is reported as “downregulated NQO1 transcription” and the inhibition at 200 µM (Staphylococcus aureus) is reported as roughly 20%.

For `COC(=O)[C@@H]1[C@H]2C[C@@H]3N(CC[C@@]34C(=O)N(c3ccc(Oc5ccccc5)cc3)c3ccccc34)C[C@@H]2CC[C@@H]1O` [Y3e], the “transcription of endogenous NQO1” value [4] was “downregulated NQO1 transcription”.

With `COC(=O)[C@@H]1[C@H]2C[C@@H]3N(CC[C@@]34C(=O)N(Cc3cccc(OC)c3)c3ccccc34)C[C@@H]2CC[C@@H]1OCc1cccc(OC)c1` [Y7g] the “differential (HIF-dependent) antiproliferative activity” value [5] was “most selective antiproliferative agent”, the “inhibition of nitric oxide (NO) production” value [1] was “most selective anti-inflammatory activity” and the cell viability (RAW264.7 cells) was “almost unaffected”.
